Source: patent US7053070B2, “Pyrido[2,3-d]pyrimidine-2,7-diamine kinase inhibitors” (Warner-Lambert Company, priority 2000, dated 2006)
Structures can show the parent of a compound that is named as a salt.

Tests used:
[1] = molecular target: cdk4/cyclinD (Homo sapiens, UniProt P11802); assay: Cyclin Dependent Kinase 4 (cdk-4) Assay, 32P incorporation, filter plate; type: biochemical; conditions: retinoblastoma substrate, 25 μM ATP, 25° C., 15 minutes; read-out: Inhibition of Cdks: IC50 Cdk4D
Procedure: Cyclin Dependent Kinase 4 (cdk-4) Assay
Enzyme assays for IC50 determinations and kinetic evaluation are performed in 96-well filter plates (Millipore MADVN6550). The total volume is 0.1 mL containing a final concentration of 20 mM TRIS (tris[hydroxymethyl]aminomethane), at pH 7.4, 50 mM NaCl, 1 mM dithiothreitol, 10 mM MgCl2, 25 μM ATP containing 0.25 μCi of [^32P]ATP, 20 ng of cdk4, 1 μg of retinoblastoma, and appropriate dilutions of a compound of the present invention. All components except the ATP are added to the wells, and the plate is placed on a plate mixer for 2 minutes. The reaction is started by adding [^32P]ATP, and the plate is incubated at 25° C. for 15 minutes. The reaction is terminated by addition of 0.1 mL of 20% trichloroacetic acid (TCA). The plate is kept at 4° C. for at least 1 hour to allow the substrate to precipitate. The wells are then washed 5 times with 0.2 mL of 10% TCA and ^32P incorporation is determined with a beta plate counter (Wallac Inc., Gaithersburg, Md.).

[2] = molecular target: cdk1/cyclinB (Homo sapiens, UniProt P06493); assay: Cyclin dependent kinase 1 assay (cdk1/cyclinB), 32P incorporation, filter plate; type: biochemical; conditions: retinoblastoma substrate, 12 mM ATP, 25° C., 15 minutes; read-out: Inhibition of Cdks: IC50 Cdk1/B
Chain of cdk1/cyclinB (P06493 whole entry, species assumed): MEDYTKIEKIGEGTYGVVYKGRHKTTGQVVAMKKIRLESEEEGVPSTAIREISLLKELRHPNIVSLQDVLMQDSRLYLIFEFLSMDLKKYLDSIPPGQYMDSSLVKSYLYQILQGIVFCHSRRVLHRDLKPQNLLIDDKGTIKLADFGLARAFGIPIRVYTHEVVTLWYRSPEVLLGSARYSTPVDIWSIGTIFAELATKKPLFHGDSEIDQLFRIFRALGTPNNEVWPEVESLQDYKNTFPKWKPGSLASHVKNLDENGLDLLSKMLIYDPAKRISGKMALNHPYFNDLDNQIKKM
Chain of cdk1/cyclinB (P14635 whole entry partner, species assumed): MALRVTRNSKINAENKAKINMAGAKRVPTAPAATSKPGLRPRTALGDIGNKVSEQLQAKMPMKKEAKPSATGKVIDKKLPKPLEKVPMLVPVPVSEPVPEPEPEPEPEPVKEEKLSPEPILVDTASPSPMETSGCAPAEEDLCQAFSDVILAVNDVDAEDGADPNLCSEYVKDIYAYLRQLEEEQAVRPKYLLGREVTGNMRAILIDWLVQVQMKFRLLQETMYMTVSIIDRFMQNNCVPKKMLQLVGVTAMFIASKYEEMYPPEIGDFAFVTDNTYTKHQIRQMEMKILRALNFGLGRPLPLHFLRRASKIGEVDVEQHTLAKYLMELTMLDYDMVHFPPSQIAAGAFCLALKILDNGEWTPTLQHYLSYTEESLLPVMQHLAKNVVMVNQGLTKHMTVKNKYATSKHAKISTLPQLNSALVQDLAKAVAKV
Procedure: (§1) Cyclin Dependent Kinase 1 and 2 Assays (cdk1/cyclinB, cdk2/cyclinA, cdk2/cyclinE)
(§2) Enzyme assays for IC50 determinations and kinetic evaluation are performed in a 96-well filter plate (Millipore MADVN6550) in a total volume of 0.1 mL of 20 mM TRIS (tris[hydroxymethyl]aminomethane), at pH 7.4, 50 mM NaCl, 1 mM dithiothreitol, 10 mM MgCl2, […] containing 0.25 μCi of [^32P]ATP, 20 ng of enzyme (either cdk1/B, cdk2/A, or cdk2E), 1 μg retinoblastoma and appropriate dilutions of the particular invention compound. All components except the ATP are added to the wells, and the plate is placed on a plate mixer for 2 minutes. The reaction is begun by addition of [^32P]ATP, and the plate is incubated at 25° C. for 15 minutes. The reaction is terminated by addition of 0.1 mL of 20% TCA. The plate is kept at 4° C. for at least 1 hour to allow the substrate to precipitate. The wells are then washed 5 times with 0.2 mL of 10% TCA and ^32P incorporation determined with a beta plate counter (Wallac Inc., Gaithersburg, Md.).

[3] = molecular target: cdk2/cyclinE (Homo sapiens, UniProt P24941); assay: Cyclin dependent kinase 2 assay (cdk2/cyclinE), 32P incorporation, filter plate; type: biochemical; conditions: retinoblastoma substrate, 12 mM ATP, 25° C., 15 minutes; read-out: Inhibition of Cdks: IC50 Cdk2/E
Procedure: as §1, §2

[4] = molecular target: cdk2/cyclinA (Homo sapiens, UniProt P24941); assay: Cyclin dependent kinase 2 assay (cdk2/cyclinA), 32P incorporation, filter plate; type: biochemical; conditions: retinoblastoma substrate, 12 mM ATP, 25° C., 15 minutes; read-out: Inhibition of Cdks: IC50 Cdk2/A
Procedure: as §1, §2

Chain of cdk4/cyclinD (P11802 whole entry, species assumed): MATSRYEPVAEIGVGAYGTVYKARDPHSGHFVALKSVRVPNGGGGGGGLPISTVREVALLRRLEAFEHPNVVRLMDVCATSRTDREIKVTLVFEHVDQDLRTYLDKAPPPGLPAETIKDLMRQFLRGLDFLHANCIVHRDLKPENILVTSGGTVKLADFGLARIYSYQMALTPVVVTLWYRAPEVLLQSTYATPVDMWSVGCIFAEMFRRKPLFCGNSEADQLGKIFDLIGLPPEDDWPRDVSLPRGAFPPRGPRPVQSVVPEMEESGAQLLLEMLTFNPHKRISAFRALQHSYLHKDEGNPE
Chain of cdk4/cyclinD (P24385 whole entry partner, species assumed): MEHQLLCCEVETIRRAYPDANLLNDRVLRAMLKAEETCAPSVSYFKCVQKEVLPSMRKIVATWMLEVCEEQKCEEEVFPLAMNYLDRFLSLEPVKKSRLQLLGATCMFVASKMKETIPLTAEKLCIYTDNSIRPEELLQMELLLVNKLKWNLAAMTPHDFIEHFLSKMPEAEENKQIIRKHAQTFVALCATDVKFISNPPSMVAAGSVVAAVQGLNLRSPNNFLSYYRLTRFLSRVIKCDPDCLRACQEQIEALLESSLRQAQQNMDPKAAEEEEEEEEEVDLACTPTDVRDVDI

| Compound | melting point | IC50 [1] [µM] | IC50 [2] [µM] | IC50 [3] [µM] | IC50 [4] [µM] |
| --- | --- | --- | --- | --- | --- |
| C[C@@H]1CN(c2ccc(Nc3ncc4cc(Br)c(NC(=O)NC5CCCCC5)nc4n3)cc2)C[C@H](C)N1 (as salt: salt) [Compound 95, 1-{6-Bromo-2-[4-(cis-3,5-dimethyl-piperazin-1-yl)-phenylamino]-pyrido[2,3-d]pyrimidin-7-yl}-3-cyclohexyl-urea] | 198 °C (dec.) | – | – | – | – |
| O=C(Nc1ccc2cnc(Nc3ccc(N4CCNCC4)cc3)nc2n1)NC1CCCC1 [Compound 51, 1-Cyclopentyl-3-[2-(4-piperazin-1-yl-phenylamino)-pyrido[2,3-d]pyrimidin-7-yl]-urea] | – | 0.004 | 0.053 | 0.03 | 0.024 |
| CCc1cc2cnc(Nc3ccc(N4C[C@@H](C)N[C@@H](C)C4)cc3)nc2nc1NC(=O)NC(C)(C)C [Compound 121, 1-tert-Butyl-3-{2-[4-(cis-3,5-dimethyl-piperazin-1-yl)-phenylamino]-6-ethyl-pyrido[2,3-d]pyrimidin-7-yl}-urea] | – | 0.092 | > 5 | > 5 | > 5 |
| O=C(Nc1ccc2cnc(Nc3ccc(N4CCNCC4)cc3)nc2n1)NC1CCCCC1 (as salt: salt) [Compound 9, 1-Cyclohexyl-3-[2-(4-piperazin-1-yl-phenylamino)-pyrido[2,3-d]pyrimidin-7-yl]-urea] | 200 °C (dec.) | – | – | – | – |
| CCN(C(=O)NC1CCCCC1)c1ccc2cnc(Nc3ccc(N4CCNCC4)cc3)nc2n1 [Compound 107, 3-Cyclohexyl-1-ethyl-1-[2-(4-piperazin-1-yl-phenylamino)-pyrido[2,3-d]pyrimidin-7-yl]-urea] | – | 0.019 | 1.73 | 1.65 | 1.95 |
| CC1(C)CN(c2ccc(Nc3ncc4ccc(NC(=O)NC5CCCCC5)nc4n3)cc2)CCN1 [Compound 115, 1-Cyclohexyl-3-{2-[4-(3,3-dimethyl-piperazin-1-yl)-phenylamino]-pyrido[2,3-d]pyrimidin-7-yl}-urea] | – | 0.007 | 0.094 | 0.051 | 0.022 |
| C[C@@H]1CN(c2ccc(Nc3ncc4cc(Br)c(NC(=O)NC(C)(C)C)nc4n3)cc2)C[C@H](C)N1 [Compound 94, 1-{6-Bromo-2-[4-(cis-3,5-dimethyl-piperazin-1-yl)-phenylamino]-pyrido[2,3-d]pyrimidin-7-yl}-3-tert-butyl-urea] | – | 0.101 | – | > 5 | – |
| CC(C)(C)NC(=O)Nc1ccc2cnc(Nc3ccc(N4CCNCC4)cc3)nc2n1 (as salt: salt) [Compound 1, 1-tert-Butyl-3-[2-(4-piperazin-1-yl-phenylamino)-pyrido[2,3-d]pyrimidin-7-yl]-urea] | 215 °C (dec.) | – | – | – | – |
| CC(C)NC(=O)Nc1ccc2cnc(Nc3ccc(N4CCNCC4)cc3)nc2n1 (as salt: salt) [Compound 48, 1-Isopropyl-3-[2-(4-piperazin-1-yl-phenylamino)-pyrido[2,3-d]pyrimidin-7-yl]-urea] | 190 °C (dec.) | – | – | – | – |
| C[C@@H]1CN(c2ccc(Nc3ncc4ccc(N(C)C(=O)NC5CCCCC5)nc4n3)cc2)C[C@H](C)N1 [Compound 106, 3-Cyclohexyl-1-{2-[4-(cis-3,5-dimethyl-piperazin-1-yl)-phenylamino]-pyrido[2,3-d]pyrimidin-7-}-1-methyl-urea] | 170 °C (dec.) | – | – | 0.44 | 0.35 |

Next, values leading:

| melting point | IC50 [1] [µM] | IC50 [2] [µM] | IC50 [3] [µM] | IC50 [4] [µM] | Compound |
| --- | --- | --- | --- | --- | --- |
| – | > 5 | > 5 | > 5 | > 5 | CNC(=O)Nc1nc2nc(Nc3ccc(N4CCNCC4)cc3)ncc2cc1Br [Compound 93, 1-[6-Bromo-2-(4-piperazin-1-yl-phenylamino)-pyrido[2,3-d]pyrimidin-7-yl]-3-methyl-urea] |
| – | 0.079 | > 5 | 3.8 | > 5 | Cc1cc2cnc(Nc3ccc(N4CCNCC4)cc3)nc2nc1NC(=O)NC(C)(C)C [Compound 118] |
| – | 1.6 | > 5 | > 5 | > 5 | Cc1cc2cnc(Nc3ccc(N4C[C@@H](C)N[C@@H](C)C4)cc3)nc2nc1NC(=O)NC(C)C [Compound 119, 1-{2-[4-(cis-3,5-Dimethyl-piperazin-1-yl)-phenylamino]-6-methyl-pyrido[2,3-d]pyrimidin-7-yl}-3-isopropyl-urea] |
| – | 0.31 | – | > 5 | – | C[C@@H]1CN(c2ccc(Nc3ncc4cc(Br)c(NC(=O)NC5CCCCC5)nc4n3)cc2)C[C@H](C)N1 [Compound 95, 1-{6-Bromo-2-[4-(cis-3,5-dimethyl-piperazin-1-yl)-phenylamino]-pyrido[2,3-d]pyrimidin-7-yl}-3-cyclohexyl-urea] |
| – | 0.313 | > 5 | 3.75 | > 5 | Cc1cc2cnc(Nc3ccc(N4C[C@@H](C)N[C@@H](C)C4)cc3)nc2nc1NC(=O)NC1CCCCC1 [Compound 116, 1-Cyclohexyl-3-{2-[4-(cis-3,5-dimethyl-piperazin-1-yl)-phenylamino]-6-methyl-pyrido[2,3-d]pyrimidin-7-yl}-urea] |
| – | 0.07 | > 5 | > 5 | > 5 | CC(C)(C)NC(=O)Nc1nc2nc(Nc3ccc(N4CCNCC4)cc3)ncc2cc1Br [Compound 91, 1-[6-Bromo-2-(4-piperazin-1-yl-phenylamino)-pyrido[2,3-d]pyrimidin-7-yl]-3-tert-butyl-urea] |
| – | 0.035 | 0.265 | 0.415 | 0.153 | CC1(C)CN(c2ccc(Nc3ncc4cc(F)c(NC(=O)NC5CCCCC5)nc4n3)cc2)CCN1 [Compound 100, 1-Cyclohexyl-3-{2-[4-(3,3-dimethyl-piperazin-1-yl)-phenylamino]-6-fluoro-pyrido[2,3-d]pyrimidin-7-yl}-urea] |
| – | 0.165 | 3.13 | 4.5 | 3.59 | C[C@@H]1CN(c2ccc(Nc3ncc4cc(F)c(NC(=O)NC(C)(C)C)nc4n3)cc2)C[C@H](C)N1 [Compound 102, 1-tert-Butyl-3-{2-[4(cis-3,5-dimethyl-piperazin-1-yl)-phenylamino]-6-fluoro-pyrido[2,3-d]pyrimidin-7-yl}-urea] |
| – | 0.018 | 0.257 | 0.098 | 0.113 | CC(C)NC(=O)Nc1ccc2cnc(Nc3ccc(N4CCNCC4)cc3)nc2n1 [Compound 48, 1-Isopropyl-3-[2-(4-piperazin-1-yl-phenylamino)-pyrido[2,3-d]pyrimidin-7-yl]-urea] |
| – | 0.067 | 2.42 | 3.05 | 2.03 | CCN(C(=O)NC(C)(C)C)c1ccc2cnc(Nc3ccc(N4C[C@@H](C)N[C@@H](C)C4)cc3)nc2n1 [Compound 108, 3-tert-Butyl-1-{2-[4(cis-3,5-dimethyl-piperazin-1-yl)-phenylamino]-pyrido[2,3-d]pyrimidin-7-yl}-1-ethyl-urea] |
| – | 1.9 | > 5 | > 5 | > 5 | Cc1cc2cnc(Nc3ccc(N4C[C@@H](C)N[C@@H](C)C4)cc3)nc2nc1NC(=O)NC1CC1 [Compound 120, 1-Cyclopropyl-3-{2-[4-(cis-3,5-dimethyl-piperazin-1-yl)-phenylamino]-6-methyl-pyrido[2,3-d]pyrimidin-7-yl}-urea] |
| 210 to 213 °C (dec.) | – | – | – | – | O=C(Nc1ccc2cnc(Nc3ccc(N4CCNCC4)cc3)nc2n1)NC1CCCC1 (as salt: salt) [Compound 51, 1-Cyclopentyl-3-[2-(4-piperazin-1-yl-phenylamino)-pyrido[2,3-d]pyrimidin-7-yl]-urea] |
| – | 3 | > 5 | > 5 | > 5 | CCOC(=O)c1cc2cnc(Nc3ccc(N4CCNCC4)cc3)nc2nc1NC(=O)NC(C)(C)C [Compound 113, 7-(3-tert-Butyl-ureido)-2-(4-piperazin-1-yl-phenylamino)-pyrido[2,3-d]pyrimidine-6-carboxylic acid ethyl ester] |
